Measured values from patent US8987273B2, “Substituted imidazo[1,2-B]pyridazines” (Bayer Intellectual Property GmbH, priority 2010, dated 2015).
Where a name gives a salt, the structure may show the parent alone.

Experiments:
[1] = target: His-tagged human recombinant kinase full-length Akt2 (Homo sapiens (Human), UniProt P31751); test: Akt2 kinase assay (TR-FRET); type: biochemical; details: 10 μM ATP; median
Excerpt: Akt2 inhibitory activity of compounds of the present invention was quantified employing the Akt2 TR-FRET assay as described in the following paragraphs.
(§1) His-tagged human recombinant kinase full-length Akt2 expressed in insect cells and activated by PDK1 was purchased form Invitrogen (part number PV 3975). As substrate for the kinase reaction the biotinylated peptide biotin-Ahx-[…] (C-terminus in amide form) was used which can be purchased e.g. from the company Biosynthan GmbH (Berlin-Buch, Germany).
(§2) For the assay 50 nl of a 100 fold concentrated solution of the test compound in DMSO was pipetted into a black low volume 384 well microtiter plate (Greiner Bio-One, Frickenhausen, Germany), 2 μl of a solution of Akt2 in assay buffer [50 mM TRIS/HCl pH 7.5, 5 mM MgCl2, 1 mM dithiothreitol, 0.02% (v/v) Triton X-100 (Sigma)] were added and the mixture was incubated for 15 min at 22° C. to allow pre-binding of the test compounds to the enzyme before the start of the kinase reaction. Then the kinase reaction was started by the addition of 3 μl of a solution of adenosine-tri-phosphate (ATP, 16.7 μM=>final conc. in the 5 μl assay volume is 10 μM) and substrate (1.67 μM=>final conc. in the 5 μl assay volume is 1 μM) in assay buffer and the resulting mixture was incubated for a reaction time of 60 min at 22° C. The concentration of Akt2 in the assay was adjusted depending of the activity of the enzyme lot and was chosen appropriate to have the assay in the linear range, typical enzyme concentrations were in the range of about 0.2 ng/μl (final conc. in the 5 μl assay volume).
(§3) The reaction was stopped by the addition of 5 μl of a solution of HTRF detection reagents (200 nM streptavidine-XL665 [Cisbio] and 1.5 nM anti-phosho-Serine antibody [Millipore, cat. #35-001] and 0.75 nM LANCE Eu-W 1024 labeled anti-mouse IgG antibody [Perkin Elmer]) in an aqueous EDTA-solution (100 mM EDTA, 0.1%/w/v\ bovine serum albumin in 50 mM HEPES/NaOH pH 7.5).
(§4) The resulting mixture was incubated 1 h at 22° C. to allow the binding of the biotinylated phosphorylated peptide to the streptavidine-XL665 and the antibodies. Subsequently the amount of phosphorylated substrate was evaluated by measurement of the resonance energy transfer from the anti-mouse-IgG-Eu-Chelate to the streptavidine-XL665. Therefore, the fluorescence emissions at 620 nm and 665 nm after excitation at 350 nm was measured in a TR-FRET reader, e.g. a Rubystar (BMG Labtechnologies, Offenburg, Germany) or a Viewlux (Perkin-Elmer). The ratio of the emissions at 665 nm and at […] was taken as the measure for the amount of phosphorylated substrate. The data were normalised (enzyme reaction without inhibitor=0% inhibition, all other assay components but no enzyme=100% inhibition).

KPL-4 cells = test: Tumor cell proliferation assay (CellTiter-Glo); type: cell-based; details: KPL4; 72 h drug exposure
Protocol: Compounds were tested in a cell-based assay that measures the capacity of the compounds to inhibit tumour cell proliferation following a 72 h drug exposure. Cell viability is determined using CellTiter-Glow® (CTG, Promega, cat# G757112/3). The CellTiter-Glo® Luminescent Cell Viability Assay is a homogeneous method to determine the number of viable cells in culture. Detection is based on using the luciferase reaction to measure the amount of ATP from viable cells. The amount of ATP in cells correlates with cell viability. Within minutes after a loss of membrane integrity, cells lose the ability to synthesize ATP, and endogenous ATPases destroy any remaining ATP; thus the levels of ATP fall precipitously.
Cells were plated at 3000-5000 cells/well (depending on the cell lines) in 90 μL growth medium on MTPs (Corning; #3603, black plate, clear flat bottom). For each cell line assayed, cells were plated onto a separate plate for determination of […] at t=0 hour and t=72 hour time points. Following overnight incubation at 37° C., chemiluminescence values for the t=0 samples were determined after adding 10 μl medium and 100 μl CTG solution according to manufacture protocol. Plates for the t=72 hour time points were treated with compounds diluted into growth medium at ten times final concentration added in 10 μL to the cell culture plate. Cells were then incubated for 72 hours at 37° C. Chemiluminescence values for the t=72 hour samples were determined. For data analysis, briefly, data from 24 h plate where used to reflect 100% inhibition of growth (“Ci”) and DMSO control for uninhibited growth (“C0”) and analyzed using MTS software package for IC50 and Hill coefficient. Experiments were controlled using a reference compound as standard.

[2] = target: His-tagged human recombinant kinase full-length Akt1 (Homo sapiens (Human), UniProt P31749); test: Akt1 kinase assay (TR-FRET); type: biochemical; details: 10 μM ATP; median
Excerpt: as §1, with “Akt1 inhibitory activity of compounds of the present invention was quantified employing the Akt1 TR-FRET assay as described in the following paragraphs. His-tagged” for “His-tagged”, “Akt1” for “Akt2”, “cells” for “cells and activated by PDK1”, “3599).” for “3975).”
as §2, with “Akt1” for “Akt2”, “0.05” for “0.2”
as §3, with “0.1% (w/v)” for “0.1%/w/v\”
as §4, with “HTRF” for “TR-FRET”

[3] = system: phospho-AKT at S473 in KPL4 breast tumour cell line; test: Cellular p-AKT1/2/3-S473 assay; type: cell-based; details: KPL4 cells, 2 hours treatment; median; read-out: pAKT-S743 median IC50
Protocol: The molecular mechanism of action was investigated in a set of experiments to assess the inhibition of the PI3K-AKT-mTOR pathway in responsive cell lines such as KPL4 breast tumour cell line (PIK3CAH1047R, HER2O/E and hormone independent). The phospho-substrates of PI3K-AKT-mTOR axis were used as the read-outs to reflect pathway inhibition. Cells were seeded at 60-80% confluency per well in 96-well cell culture plates. After overnight incubation at 37° C. 5% CO2, cells were treated with compounds and vehicle at 37° C. for 2 hours. […] All measurements where at least done in duplicates and confirmed by independent repetition.
Alternatively pAKT-S473 was measured using the “Akt Duplex” of the MULTI-SPOT® Assay System (Fa. Meso Scale Discovery, Cat# N41100B-1) following manufacturers instructions. Each assay used 20 μg of protein extract and measured total AKT and p-AKT content simultaneously in one well. All measurements where at least done in duplicates and confirmed by independent repetition. Values for P-AKT are expressed as percentage of P-AKT level compared to total-AKT content of the extracts.

His-tagged human recombinant kinase full-length Akt2, sequence (P31751 whole entry): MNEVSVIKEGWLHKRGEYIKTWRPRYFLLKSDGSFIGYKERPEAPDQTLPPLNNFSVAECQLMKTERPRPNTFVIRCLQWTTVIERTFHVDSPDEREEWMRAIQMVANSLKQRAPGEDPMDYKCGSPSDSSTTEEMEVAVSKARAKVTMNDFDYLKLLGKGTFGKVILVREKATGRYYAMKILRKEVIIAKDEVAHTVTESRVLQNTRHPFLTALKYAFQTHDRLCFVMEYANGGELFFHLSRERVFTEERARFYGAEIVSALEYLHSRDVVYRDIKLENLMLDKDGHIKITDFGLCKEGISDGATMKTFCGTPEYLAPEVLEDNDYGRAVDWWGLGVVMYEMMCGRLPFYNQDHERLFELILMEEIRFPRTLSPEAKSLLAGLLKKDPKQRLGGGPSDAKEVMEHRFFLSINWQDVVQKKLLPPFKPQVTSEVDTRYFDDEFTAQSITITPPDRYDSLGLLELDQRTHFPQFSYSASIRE
His-tagged human recombinant kinase full-length Akt1, sequence (P31749 whole entry): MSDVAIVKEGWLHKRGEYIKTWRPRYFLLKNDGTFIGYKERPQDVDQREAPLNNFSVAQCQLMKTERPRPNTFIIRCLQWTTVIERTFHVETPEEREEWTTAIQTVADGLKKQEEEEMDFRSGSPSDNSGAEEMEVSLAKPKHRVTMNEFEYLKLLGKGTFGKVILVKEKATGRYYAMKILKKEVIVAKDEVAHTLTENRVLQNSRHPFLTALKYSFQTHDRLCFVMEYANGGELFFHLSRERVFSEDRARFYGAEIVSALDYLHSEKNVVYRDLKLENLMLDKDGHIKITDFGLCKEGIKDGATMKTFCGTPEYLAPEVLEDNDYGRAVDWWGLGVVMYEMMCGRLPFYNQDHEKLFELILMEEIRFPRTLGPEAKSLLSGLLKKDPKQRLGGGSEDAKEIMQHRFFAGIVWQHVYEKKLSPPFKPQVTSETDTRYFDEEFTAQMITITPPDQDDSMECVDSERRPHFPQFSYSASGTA

SMILES | IC50 [1] [nM] | IC50 (KPL-4 cells) [nM] | IC50 [2] [nM] | IC50 [3] [nM]
NC1(c2ccc(-c3nn4c(-c5ccc(CO)cc5)cnc4cc3-c3ccccc3)cc2)CCC1 [Example 4-6, (4-{6-[4-(1-Amino-cyclobutyl)-phenyl]-7-phenyl-imidazo[1,2-b]pyridazin-3-yl}-phenyl)-methanol formiate] | 123 | 1590 | 19 | 30
NC1(c2ccc(-c3nn4c(-c5cccc(CO)c5)cnc4cc3-c3ccccc3)cc2)CCC1 [Example 4-5, (3-{6-[4-(1-Amino-cyclobutyl)-phenyl]-7-phenyl-imidazo[1,2-b]pyridazin-3-yl}-phenyl)-methanol] | 37 | 1310 | 6 | 30
N#Cc1cccc(-c2cnc3cc(-c4ccccc4)c(-c4ccc(C5(N)CCC5)cc4)nn23)c1 [Example 3-0, 3-{6-[4-(1-Amino-cyclobutyl)-phenyl]-7-phenyl-imidazo[1,2-b]pyridazin-3-yl}-benzonitrile] | 82 | 1710 | 5 | 1550
CCOC(=O)c1cncc(-c2cnc3cc(-c4ccccc4)c(-c4ccc(C5(N)CCC5)cc4)nn23)c1 [Example 4-17, 5-{6-[4-(1-Amino-cyclobutyl)-phenyl]-7-phenyl-imidazo[1,2-b]pyridazin-3-yl}-nicotinic acid ethyl ester] | 110 | 6200 | 7 | 60
Cc1nc2cc(-c3ccccc3)c(-c3ccc(C4(N)CCC4)cc3)nn2c1-c1ccc(F)cc1 [Example 5-3, 1-{4-[3-(4-Fluorophenyl)-2-methyl-7-phenyl-imidazo[1,2-b]pyridazin-6-yl]-phenyl}-cyclobutylamine] | 5110 | 2280 | 4430 | 9170
NC1(c2ccc(-c3nn4c(-c5ccc(S(N)(=O)=O)cc5)cnc4cc3-c3ccccc3)cc2)CCC1 [Example 4-7, 4-{6-[4-(1-Amino-cyclobutyl)-phenyl]-7-phenyl-imidazo[1,2-b]pyridazin-3-yl}-benzenesulfonamide hydrocloride] | 151 | 1750 | 47 | 160
NC(=O)c1cccc(-c2cnc3cc(-c4ccccc4)c(-c4ccc(C5(N)CCC5)cc4)nn23)c1 [Example 4-11, 3-{6-[4-(1-Amino-cyclobutyl)-phenyl]-7-phenyl-imidazo[1,2-b]pyridazin-3-yl}-benzamide hydrochloride] | 68 | 1410 | 13 | 20
Cc1nc2cc(-c3ccccc3)c(-c3ccc(C4(N)CCC4)cc3)nn2c1-c1ccn[nH]1 [Example 5-5, 1-{4-[2-Methyl-7-phenyl-3-(2H-pyrazol-3-yl)-imidazo[1,2-b]pyridazin-6-yl]-phenyl}-cyclobutylamine] | 5230 | 3690 | 2730 | 4110
NC(=O)c1ccc(-c2cnc3cc(-c4ccccc4)c(-c4ccc(C5(N)CCC5)cc4)nn23)cc1 [Example 4-10, 4-{6-[4-(1-Amino-cyclobutyl)-phenyl]-7-phenyl-imidazo[1,2-b]pyridazin-3-yl}-benzamide hydrochloride] | 118 | 1260 | 27 | 70

Results, then the compound that gave them:

IC50 [1] [nM] | IC50 (KPL-4 cells) [nM] | IC50 [2] [nM] | IC50 [3] [nM] | SMILES
106 | 3030 | 99 | 610 | NC1(c2ccc(-c3nn4c(-c5ccc(F)cc5)c(Cl)nc4cc3-c3ccccc3)cc2)CCC1 [Example 7-0, 1-{4-[2-Chloro-3-(4-fluorophenyl)-7-phenyl-imidazo[1,2-b]pyridazin-6-yl]-phenyl}-cyclobutylamine]
326 | 1870 | 44 | 30 | C=Cc1cnc2cc(-c3ccccc3)c(-c3ccc(C4(N)CCC4)cc3)nn12 [Example 9-0, 1-[4-(7-Phenyl-3-vinyl-imidazo[1,2-b]pyridazin-6-yl)-phenyl]-cyclobutylamine]
20000 | 2490 | 18000 | 10000 | Cc1nc2cc(-c3ccccc3)c(-c3ccc(C4(N)CCC4)cc3)nn2c1/C=C/C(N)=O [Example 10-0, (E)-3-{6-[4-(1-Amino-cyclobutyl)-phenyl]-2-methyl-7-phenyl-imidazo[1,2-b]pyridazin-3-yl}-acrylamide]
